Measured values from the supplement of paper PMC10307832.

Tests used:
Test in all cases: relative viability (nuclei count vs DMSO), 5 days (fraction); higher = more cells survive
CUDC-101 + AZD7762 = compound: C#Cc1cccc(Nc2ncnc3cc(OC)c(OCCCCCCC(=O)NO)cc23)c1 [CUDC-101] + NC(=O)Nc1cc(-c2cccc(F)c2)sc1C(=O)N[C@H]1CCCNC1 [AZD7762] (partner 0.2 µM)
Summary of the method: (§1)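 Medians of duplicate plates are given as relative viability. That measure is the nuclei count in treated wells divided by the count in vehicle wells. Counts were taken on 4× images of lung cancer cell lines in 1536-well plates, 5 days after pin-tool dosing the day after seeding with one drug alone or a fixed anchor-drug dose plus five library-drug doses (not always all listed) in √10 steps.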

[1] = compound: C1=CC=C2C(=C1)N=C(S2)C(C#N)C3=NC(=NC=C3)NCCC4=CN=CC=C4 + COc1cccc2cc(-c3nc([C@H]4CC[C@H](C(=O)O)CC4)n4ncnc(N)c34)[nH]c12 [OSI-027] (partner 0.5 µM)
Summary of the method: as §1

NVP-TAE684 + Alpelisib = compound: COc1cc(N2CCC(N3CCN(C)CC3)CC2)ccc1Nc1ncc(Cl)c(Nc2ccccc2S(=O)(=O)C(C)C)n1 [NVP-TAE684] + Cc1nc(NC(=O)N2CCC[C@H]2C(N)=O)sc1-c1ccnc(C(C)(C)C(F)(F)F)c1 [Alpelisib] (partner 2 µM)
Summary of the method: as §1

Vandetanib + Dasatinib = compound: COc1cc2/c(=N/c3ccc(Br)cc3F)nc[nH]c2cc1OCC1CCN(C)CC1 [Vandetanib] + Cc1nc(Nc2ncc(C(=O)Nc3c(C)cccc3Cl)s2)cc(N2CCN(CCO)CC2)n1 [Dasatinib] (partner 0.075 µM)
Summary of the method: as §1

## HARA
CUDC-101 + AZD7762; first compound 0.01 µM
  relative viability: 0.31
CUDC-101 + AZD7762; first compound 0.03162 µM
  relative viability: 0.507
CUDC-101 + AZD7762; first compound 0.3162 µM
  relative viability: 0.24
CUDC-101 + AZD7762; first compound 1 µM
  relative viability: 0.131
[1]; first compound 0.005 µM
  relative viability: 0.602
[1]; first compound 0.01581 µM
  relative viability: 0.373
[1]; first compound 0.05 µM
  relative viability: 0.493
[1]; first compound 0.1581 µM
  relative viability: 0.464
[1]; first compound 0.5 µM
  relative viability: 0.472
NVP-TAE684 + Alpelisib; first compound 0.2 µM
  relative viability: 0.884
NVP-TAE684 + Alpelisib; first compound 0.6325 µM
  relative viability: 0.719
NVP-TAE684 + Alpelisib; first compound 2 µM
  relative viability: 0.346
Vandetanib + Dasatinib; first compound 0.02 µM
  relative viability: 0.305
Vandetanib + Dasatinib; first compound 0.06325 µM
  relative viability: 0.264
Vandetanib + Dasatinib; first compound 0.2 µM
  relative viability: 0.239
Vandetanib + Dasatinib; first compound 0.6325 µM
  relative viability: 0.237
Vandetanib + Dasatinib; first compound 2 µM
  relative viability: 0.303

## BEN
CUDC-101 + AZD7762; first compound 0.01 µM
  relative viability: 0.68
CUDC-101 + AZD7762; first compound 0.03162 µM
  relative viability: 0.735
CUDC-101 + AZD7762; first compound 0.1 µM
  relative viability: 0.703
CUDC-101 + AZD7762; first compound 0.3162 µM
  relative viability: 0.684
CUDC-101 + AZD7762; first compound 1 µM
  relative viability: 0.645
[1]; first compound 0.005 µM
  relative viability: 0.427
[1]; first compound 0.01581 µM
  relative viability: 0.283
[1]; first compound 0.05 µM
  relative viability: 0.274
[1]; first compound 0.1581 µM
  relative viability: 0.625
[1]; first compound 0.5 µM
  relative viability: 0.587
NVP-TAE684 + Alpelisib; first compound 0.6325 µM
  relative viability: 0.955
NVP-TAE684 + Alpelisib; first compound 2 µM
  relative viability: 1.02
Vandetanib + Dasatinib; first compound 0.02 µM
  relative viability: 0.309
Vandetanib + Dasatinib; first compound 0.06325 µM
  relative viability: 0.331
Vandetanib + Dasatinib; first compound 0.2 µM
  relative viability: 0.271
Vandetanib + Dasatinib; first compound 0.6325 µM
  relative viability: 0.286
Vandetanib + Dasatinib; first compound 2 µM
  relative viability: 0.288

## LC-2-ad
CUDC-101 + AZD7762; first compound 0.01 µM
  relative viability: 0.904
CUDC-101 + AZD7762; first compound 0.03162 µM
  relative viability: 0.858
CUDC-101 + AZD7762; first compound 0.1 µM
  relative viability: 0.824
CUDC-101 + AZD7762; first compound 0.3162 µM
  relative viability: 0.778
CUDC-101 + AZD7762; first compound 1 µM
  relative viability: 0.581
[1]; first compound 0.005 µM
  relative viability: 0.724
[1]; first compound 0.01581 µM
  relative viability: 0.803
[1]; first compound 0.05 µM
  relative viability: 0.912
[1]; first compound 0.1581 µM
  relative viability: 0.875
[1]; first compound 0.5 µM
  relative viability: 0.695
NVP-TAE684 + Alpelisib; first compound 0.2 µM
  relative viability: 0.813
NVP-TAE684 + Alpelisib; first compound 0.6325 µM
  relative viability: 0.801
NVP-TAE684 + Alpelisib; first compound 2 µM
  relative viability: 0.232
Vandetanib + Dasatinib; first compound 0.02 µM
  relative viability: 0.574
Vandetanib + Dasatinib; first compound 0.06325 µM
  relative viability: 0.471
Vandetanib + Dasatinib; first compound 0.2 µM
  relative viability: 0.49
Vandetanib + Dasatinib; first compound 0.6325 µM
  relative viability: 0.317
Vandetanib + Dasatinib; first compound 2 µM
  relative viability: 0.211

## NCI-H1395
CUDC-101 + AZD7762; first compound 0.01 µM
  relative viability: 0.374
CUDC-101 + AZD7762; first compound 0.03162 µM
  relative viability: 0.375
CUDC-101 + AZD7762; first compound 0.1 µM
  relative viability: 0.397
CUDC-101 + AZD7762; first compound 0.3162 µM
  relative viability: 0.396
CUDC-101 + AZD7762; first compound 1 µM
  relative viability: 0.327
[1]; first compound 0.005 µM
  relative viability: 0.606
[1]; first compound 0.01581 µM
  relative viability: 0.515
[1]; first compound 0.05 µM
  relative viability: 0.569
[1]; first compound 0.1581 µM
  relative viability: 0.843
[1]; first compound 0.5 µM
  relative viability: 0.658
NVP-TAE684 + Alpelisib; first compound 0.2 µM
  relative viability: 1.2
NVP-TAE684 + Alpelisib; first compound 0.6325 µM
  relative viability: 1.19
NVP-TAE684 + Alpelisib; first compound 2 µM
  relative viability: 0.739
Vandetanib + Dasatinib; first compound 0.02 µM
  relative viability: 0.349
Vandetanib + Dasatinib; first compound 0.06325 µM
  relative viability: 0.373
Vandetanib + Dasatinib; first compound 0.2 µM
  relative viability: 0.417
Vandetanib + Dasatinib; first compound 0.6325 µM
  relative viability: 0.405
Vandetanib + Dasatinib; first compound 2 µM
  relative viability: 0.444

## NCI-H2085
CUDC-101 + AZD7762; first compound 0.01 µM
  relative viability: 0.956
CUDC-101 + AZD7762; first compound 0.03162 µM
  relative viability: 1.01
CUDC-101 + AZD7762; first compound 0.1 µM
  relative viability: 1.06
CUDC-101 + AZD7762; first compound 0.3162 µM
  relative viability: 0.922
CUDC-101 + AZD7762; first compound 1 µM
  relative viability: 0.877
[1]; first compound 0.005 µM
  relative viability: 0.675
[1]; first compound 0.01581 µM
  relative viability: 0.738
[1]; first compound 0.05 µM
  relative viability: 0.57
[1]; first compound 0.1581 µM
  relative viability: 0.931
[1]; first compound 0.5 µM
  relative viability: 0.663
NVP-TAE684 + Alpelisib; first compound 0.2 µM
  relative viability: 0.934
NVP-TAE684 + Alpelisib; first compound 0.6325 µM
  relative viability: 0.897
NVP-TAE684 + Alpelisib; first compound 2 µM
  relative viability: 0.712
Vandetanib + Dasatinib; first compound 0.02 µM
  relative viability: 0.226
Vandetanib + Dasatinib; first compound 0.06325 µM
  relative viability: 0.236
Vandetanib + Dasatinib; first compound 0.2 µM
  relative viability: 0.2
Vandetanib + Dasatinib; first compound 0.6325 µM
  relative viability: 0.279
Vandetanib + Dasatinib; first compound 2 µM
  relative viability: 0.244

## NCI-H1666
CUDC-101 + AZD7762; first compound 0.01 µM
  relative viability: 0.943
CUDC-101 + AZD7762; first compound 0.03162 µM
  relative viability: 0.741
CUDC-101 + AZD7762; first compound 0.1 µM
  relative viability: 0.879
CUDC-101 + AZD7762; first compound 0.3162 µM
  relative viability: 0.92
CUDC-101 + AZD7762; first compound 1 µM
  relative viability: 0.641
[1]; first compound 0.005 µM
  relative viability: 0.776
[1]; first compound 0.01581 µM
  relative viability: 0.839
[1]; first compound 0.05 µM
  relative viability: 0.804
[1]; first compound 0.1581 µM
  relative viability: 0.849
[1]; first compound 0.5 µM
  relative viability: 0.812
NVP-TAE684 + Alpelisib; first compound 0.6325 µM
  relative viability: 0.837
NVP-TAE684 + Alpelisib; first compound 2 µM
  relative viability: 0.524
Vandetanib + Dasatinib; first compound 0.02 µM
  relative viability: 0.767
Vandetanib + Dasatinib; first compound 0.06325 µM
  relative viability: 0.723
Vandetanib + Dasatinib; first compound 0.2 µM
  relative viability: 0.801
Vandetanib + Dasatinib; first compound 0.6325 µM
  relative viability: 0.769
Vandetanib + Dasatinib; first compound 2 µM
  relative viability: 0.779

## NCI-H1993
CUDC-101 + AZD7762; first compound 0.01 µM
  relative viability: 0.811
CUDC-101 + AZD7762; first compound 0.03162 µM
  relative viability: 0.87
CUDC-101 + AZD7762; first compound 0.1 µM
  relative viability: 0.855
CUDC-101 + AZD7762; first compound 0.3162 µM
  relative viability: 0.704
CUDC-101 + AZD7762; first compound 1 µM
  relative viability: 0.428
[1]; first compound 0.005 µM
  relative viability: 0.579
[1]; first compound 0.01581 µM
  relative viability: 0.555
[1]; first compound 0.05 µM
  relative viability: 0.637
[1]; first compound 0.1581 µM
  relative viability: 0.626
[1]; first compound 0.5 µM
  relative viability: 0.585
NVP-TAE684 + Alpelisib; first compound 0.6325 µM
  relative viability: 0.7
NVP-TAE684 + Alpelisib; first compound 2 µM
  relative viability: 0.696
Vandetanib + Dasatinib; first compound 0.02 µM
  relative viability: 0.796
Vandetanib + Dasatinib; first compound 0.06325 µM
  relative viability: 0.577
Vandetanib + Dasatinib; first compound 0.2 µM
  relative viability: 0.514
Vandetanib + Dasatinib; first compound 0.6325 µM
  relative viability: 0.623
Vandetanib + Dasatinib; first compound 2 µM
  relative viability: 0.578

## NCI-H1437
CUDC-101 + AZD7762; first compound 0.01 µM
  relative viability: 1.1
CUDC-101 + AZD7762; first compound 0.03162 µM
  relative viability: 1
CUDC-101 + AZD7762; first compound 0.1 µM
  relative viability: 1.11
CUDC-101 + AZD7762; first compound 0.3162 µM
  relative viability: 1.2
CUDC-101 + AZD7762; first compound 1 µM
  relative viability: 1.05
[1]; first compound 0.005 µM
  relative viability: 0.855
[1]; first compound 0.01581 µM
  relative viability: 0.817
[1]; first compound 0.05 µM
  relative viability: 0.93
[1]; first compound 0.1581 µM
  relative viability: 0.917
[1]; first compound 0.5 µM
  relative viability: 0.723
NVP-TAE684 + Alpelisib; first compound 0.2 µM
  relative viability: 1
NVP-TAE684 + Alpelisib; first compound 0.6325 µM
  relative viability: 1
NVP-TAE684 + Alpelisib; first compound 2 µM
  relative viability: 0.516
Vandetanib + Dasatinib; first compound 0.02 µM
  relative viability: 0.401
Vandetanib + Dasatinib; first compound 0.06325 µM
  relative viability: 0.45
Vandetanib + Dasatinib; first compound 0.2 µM
  relative viability: 0.254
Vandetanib + Dasatinib; first compound 0.6325 µM
  relative viability: 0.405
Vandetanib + Dasatinib; first compound 2 µM
  relative viability: 0.222

## ABC-1
CUDC-101 + AZD7762; first compound 0.01 µM
  relative viability: 0.889
CUDC-101 + AZD7762; first compound 0.03162 µM
  relative viability: 0.807
CUDC-101 + AZD7762; first compound 0.1 µM
  relative viability: 0.763
CUDC-101 + AZD7762; first compound 0.3162 µM
  relative viability: 0.852
CUDC-101 + AZD7762; first compound 1 µM
  relative viability: 0.334
[1]; first compound 0.005 µM
  relative viability: 0.592
[1]; first compound 0.01581 µM
  relative viability: 0.407
[1]; first compound 0.05 µM
  relative viability: 0.51
[1]; first compound 0.1581 µM
  relative viability: 0.606
[1]; first compound 0.5 µM
  relative viability: 0.517
NVP-TAE684 + Alpelisib; first compound 0.2 µM
  relative viability: 1.07
NVP-TAE684 + Alpelisib; first compound 2 µM
  relative viability: 0.537
Vandetanib + Dasatinib; first compound 0.02 µM
  relative viability: 0.423
Vandetanib + Dasatinib; first compound 0.06325 µM
  relative viability: 0.547
Vandetanib + Dasatinib; first compound 0.2 µM
  relative viability: 0.605
Vandetanib + Dasatinib; first compound 0.6325 µM
  relative viability: 0.614
Vandetanib + Dasatinib; first compound 2 µM
  relative viability: 0.367
